Source: US20050043315A1, “Aminopyrimidine compounds, processes for their preparation and pharmaceutical compositions containing them” (priority 2002, published 2005)

melting point	Compound
246 °C	CC(C)n1nc(-c2cnc(N)nc2-c2ccc(O)cc2)ccc1=O (hydrate or solvate) [Example 185, 6-[2-amino-4-(4-hydroxyphenyl)-5-pyrimidinyl]-2-isopropyl-3(2H)-pyridazinone]
250 °C	Cn1nc(-c2cnc(N)nc2-c2ccc(O)cc2)ccc1=O (hydrate or solvate) [Example 223, 6-[2-Amino-4-(4-hydroxyphenyl)-5-pyrimidinyl)-2-methyl-3(2H)-pyridazinone]
188 to 189 °C	CCCn1nc(-c2cnc(N)nc2-c2ccccc2)ccc1=O [Example 5, 6-(2-Amino-4-phenyl-5-pyrimidinyl)-2-propyl-3(2H)-pyridazinone]
160 to 161 °C	CNc1ncc(-c2ccc(=O)n(C(C)C)n2)c(-c2ccccc2)n1 [Example 10, 2-Isopropyl-6-[2-(methylamino)-4-phenyl-5-pyrimidinyl]-3(2H)-pyridazinone]
238 to 239 °C	CC(C)n1nc(-c2cnc(N)nc2-c2ccc(F)cc2)ccc1=O [Example 13, 6-[2-amino-4-(4-fluorophenyl)-5-pyrimidinyl]-2-isopropyl-3(2H)-pyridazinone]
239 to 240.5 °C	CC(C)n1nc(-c2cnc(N)nc2-c2ccccc2F)ccc1=O [Example 20, 6-[2-Amino-4-(2-fluorophenyl)-5-pyrimidinyl]-2-isopropyl-3(2H)-pyridazinone]
236 to 237 °C	CC(C)n1nc(-c2cnc(N)nc2-c2cccc(Cl)c2)ccc1=O [Example 23, 6-[2-Amino-4-(3-chlorophenyl)-5-pyrimidinyl]-2-isopropyl-3(2H)-pyridazinone]
163.5 to 165 °C	CC(C)n1nc(-c2cnc(N)nc2-c2cccc(C(F)(F)F)c2)ccc1=O [Example 25, 6-{2-Amino-4-[3-(trifluoromethyl)phenyl]-5-pyrimidinyl}-2-isopropyl-3(2H)-pyridazinone]
209 to 210.5 °C	CC(C)n1nc(-c2cnc(N)nc2-c2ccc(C(F)(F)F)cc2)ccc1=O [Example 26, 6-{2-Amino-4-[4-(trifluoromethyl)phenyl]-5-pyrimidinyl}-2-isopropyl-3(2H)-pyridazinone]
249 °C	Nc1ncc(-c2ccc(=O)[nH]n2)c(-c2cccc(F)c2)n1 [Example 28, 6-[2-Amino-4-(3-fluorophenyl)-5-pyrimidinyl]-3(2H)-pyridazinone]
250 °C	COc1ccc(-c2nc(N)ncc2-c2ccc(=O)[nH]n2)cc1F [Example 29, 6-[2-Amino-4-(3-fluoro-4-methoxyphenyl)-5-pyrimidinyl]-3(2H)-pyridazinone]

Second part, the molecule before the results:

Compound	melting point
CC(C)n1nc(-c2cnc(N)nc2-c2ccccc2O)ccc1=O (hydrate or solvate) [Example 186, 6-[2-Amino-4-(2-hydroxyphenyl)-5-pyrimidinyl]-2-isopropyl-3(2H)-pyridazinone]	241 °C
CC(C)n1nc(-c2cnc(N)nc2-c2cccc(O)c2)ccc1=O (hydrate or solvate) [Example 187, 6-[2-Amino-4-(3-hydroxyphenyl)-5-pyrimidinyl]-2-isopropyl-3(2H)-pyridazinone]	204 °C
Cn1nc(-c2cnc(N)nc2-c2ccccc2O)ccc1=O (hydrate or solvate) [Example 224, 6-[2-Amino-4-(2-hydroxyphenyl)-5-pyrimidinyl]-2-methyl-3(2H)-pyridazinone]	260 °C
Cn1nc(-c2cnc(N)nc2-c2cccc(O)c2)ccc1=O (hydrate or solvate) [Example 225, 6-[2-Amino-4-(3-hydroxyphenyl)-5-pyrimidinyl]-2-methyl-3(2H)-pyridazinone]	285 °C
Cn1nc(-c2cnc(N)nc2-c2ccccc2)ccc1=O [Example 3, 6-(2-Amino-4-phenyl-5-pyrimidinyl)-2-methyl-3(2H)-pyridazinone]	254 to 255 °C
Nc1ncc(-c2ccc(=O)n(Cc3ccccc3)n2)c(-c2ccccc2)n1 [Example 6, 6-(2-Amino-4-phenyl-5-pyrimidinyl)-2-benzyl-3(2H)-pyridazinone]	229 to 230 °C
CNc1ncc(-c2ccc(=O)[nH]n2)c(-c2ccccc2)n1 [Example 8, 6-[2-(Methylamino)-4-phenyl-5-pyrimidinyl]-3(2H)-pyridazinone]	> 255 °C
CN(C)c1ncc(-c2ccc(=O)[nH]n2)c(-c2ccccc2)n1 [Example 9, 6-[2-(Dimethylamino)-4-phenyl-5-pyrimidinyl]-3(2H)-pyridazinone]	245 to 246 °C
CC(C)n1nc(-c2cnc(N(C)C)nc2-c2ccccc2)ccc1=O [Example 11, 6-[2-(Dimethylamino)-4-phenyl-5-pyrimidinyl]-2-isopropyl-3(2H)-pyridazinone]	155 to 156 °C
CC(C)n1nc(-c2cnc(N)nc2-c2ccccc2Br)ccc1=O [Example 15, 6-[2-Amino-4-(2-bromophenyl)-5-pyrimidinyl]-2-isopropyl-3(2H)-pyridazinone]	203 to 205 °C
CC(C)n1nc(-c2cnc(N3CCOCC3)nc2-c2ccccc2)ccc1=O [Example 17, 2-isopropyl-6-[2-morpholino-4-phenyl-5-pyrimidinyl]-3(2H)-pyridazinone]	200.5 to 202 °C
CC(C)n1nc(-c2cnc(Nc3ccccc3)nc2-c2ccccc2)ccc1=O [Example 19, 6-(2-Anilino-4-phenyl-5-pyrimidinyl)-2-isopropyl-3(2H)-pyridazinone]	200 to 202 °C
CC(C)n1nc(-c2cnc(N)nc2-c2cccc(F)c2)ccc1=O [Example 21, 6-[2-Amino-4-(3-fluorophenyl)-5-pyrimidinyl]-2-isopropyl-3(2H)-pyridazinone]	220 to 221.5 °C
CC(C)n1nc(-c2cnc(N)nc2-c2ccccc2Cl)ccc1=O [Example 22, 6-[2-Amino-4-(2-chlorophenyl)-5-pyrimidinyl]-2-isopropyl-3(2H)-pyridazinone]	227 to 228.5 °C
CC(C)n1nc(-c2cnc(N)nc2-c2ccccc2C(F)(F)F)ccc1=O [Example 24, 6-{2-Amino-4-[2-(trifluoromethyl)phenyl]-5-pyrimidinyl}-2-isopropyl-3(2H)-pyridazinone]	160 to 161 °C
COc1ccc(-c2nc(N)ncc2-c2ccc(=O)[nH]n2)cc1 [Example 27, 6-[2-amino-4-(4-methoxyphenyl)-5-pyrimidinyl]-3(2H)-pyridazinone]	142 °C
Nc1ncc(-c2ccc(=O)[nH]n2)c(-c2cccnc2)n1 [Example 31, 6-[2-Amino-4-(3-pyridinyl)-5-pyrimidinyl]-3(2H)-pyridazinone]	256 °C
Nc1ncc(-c2ccc(=O)[nH]n2)c(-c2ccco2)n1 [Example 34, 6-[2-Amino-4-(2-furyl)-5-pyrimidinyl]-3(2H)-pyridazinone]	262 to 268 °C
Cc1ccc(-c2nc(N)ncc2-c2ccc(=O)[nH]n2)cc1 [Example 35, 6-[2-Amino-4-(4-methylphenyl)-5-pyrimidinyl]-3(2H)-pyridazinone]	249 °C
COc1ccc(-c2nc(N)ncc2-c2ccc(=O)[nH]n2)cc1OC [Example 37, 6-[2-Amino-4-(3,4-dimethoxyphenyl)-5-pyrimidinyl]-3(2H)-pyridazinone]	225 °C
